Test results reported in patent US20220089575A1, “FARNESOID X RECEPTOR AGONISTS AND USES THEREOF” (Metacrine, Inc., priority 2017, published 2022).

molecular target: T1, hFXR (Homo sapiens, UniProt Q96RI1); experiment: In Vitro FXR Assay (TK): TK-ECRE-luc reporter in transfected CV-1 cells; assay type: cell-based; settings: 18 hrs, luminescence, maximum efficacy of <25% of the Fexarmine control classified as '+'
T1 construct: expressed in transfected cells; host or cells: CV-1 cells
T1 sequence (Q96RI1 1-486): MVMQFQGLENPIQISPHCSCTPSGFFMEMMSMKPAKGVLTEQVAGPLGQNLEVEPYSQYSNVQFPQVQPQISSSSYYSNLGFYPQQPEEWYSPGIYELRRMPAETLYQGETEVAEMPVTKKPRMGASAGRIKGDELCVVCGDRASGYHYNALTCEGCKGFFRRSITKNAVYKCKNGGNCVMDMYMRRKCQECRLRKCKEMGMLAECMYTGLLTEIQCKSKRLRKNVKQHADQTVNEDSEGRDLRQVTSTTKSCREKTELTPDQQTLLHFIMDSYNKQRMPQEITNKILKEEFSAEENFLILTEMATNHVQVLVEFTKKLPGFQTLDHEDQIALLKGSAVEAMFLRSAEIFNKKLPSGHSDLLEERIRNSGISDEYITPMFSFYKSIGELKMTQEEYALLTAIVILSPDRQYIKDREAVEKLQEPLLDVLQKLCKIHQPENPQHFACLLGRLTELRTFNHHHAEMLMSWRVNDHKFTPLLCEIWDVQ
T1 sequence (P19793 1-462 partner): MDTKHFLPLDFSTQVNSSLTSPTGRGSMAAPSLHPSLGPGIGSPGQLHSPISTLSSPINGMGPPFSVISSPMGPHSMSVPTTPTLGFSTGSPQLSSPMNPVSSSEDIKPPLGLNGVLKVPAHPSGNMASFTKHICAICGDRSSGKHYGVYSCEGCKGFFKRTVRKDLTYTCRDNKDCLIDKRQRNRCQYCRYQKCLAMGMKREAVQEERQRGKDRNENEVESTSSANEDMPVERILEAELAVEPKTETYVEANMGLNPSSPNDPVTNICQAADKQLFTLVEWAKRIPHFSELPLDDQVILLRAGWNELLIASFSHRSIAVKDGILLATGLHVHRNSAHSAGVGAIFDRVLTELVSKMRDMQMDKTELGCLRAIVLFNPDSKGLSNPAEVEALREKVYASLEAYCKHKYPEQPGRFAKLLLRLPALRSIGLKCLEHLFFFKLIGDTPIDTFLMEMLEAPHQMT
Procedure, shortened: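 CV-1 cells in DMEM with 10% charcoal-stripped FBS were co-transfected with hFXR, hRXR, TK-ECRE-luc reporter and pCMX-YFP plasmids. After 18 h, compounds serially diluted in DMSO were added for a further 18 h, then cells were lysed and luminescence read.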

`COc1ccc([C@H]2CC[C@H](CN(c3cccc(-c4cnc(C5CC5)s4)c3)C(=O)[C@H]3CC[C@H](NC(=O)CO)CC3)CC2)cc1C` [Compound 25.14, trans-N-(3-(2-Cyclopropylthiazol-5-yl)phenyl)-4-(2-hydroxyacetamido)-N-((trans-4-(4-methoxy-3-methylphenyl)cyclohexyl)methyl) cyclohexanecarboxamide] and `COc1ccc([C@H]2CC[C@H](CN(c3cccc(-c4cnn(C5CC5)c4)c3)C(=O)[C@H]3CC[C@H](NC(=O)COCCO)CC3)CC2)cc1C` [Compound 32.01, trans-N-(3-(1-Cyclopropyl-1H-pyrazol-4-yl)phenyl)-4-(2-(2-hydroxyethoxy)acetamido)-N-((trans-4-(4-methoxy-3-methylphenyl)cyclohexyl)methyl)cyclohexanecarboxamide] cannot be ordered by EC50: no more than 250 nM for the first, no more than 250 nM for the second.

`COc1ccc([C@H]2CC[C@H](CN(c3cccc(-c4cnn(C5CC5)c4)c3)C(=O)[C@H]3CC[C@H](OC(=O)N4CCSCC4)CC3)CC2)cc1C` [Compound 6.27, trans-4-((3-(1-Cyclopropyl-1H-pyrazol-4-yl)phenyl)((trans-4-(4-methoxy-3-methylphenyl)cyclohexyl)methyl)carbamoyl)cyclohexyl thiomorpholine-4-carboxylate] and `COc1ccc([C@H]2CC[C@H](CN(c3cccc(-c4cnn(C5CC5)c4)c3)C(=O)[C@H]3CC[C@H](OC(=O)NCCN)CC3)CC2)cc1C` [Compound 4.16, trans-4-((3-(1-Cyclopropyl-1H-pyrazol-4-yl)phenyl)((trans-4-(4-methoxy-3-methylphenyl)cyclohexyl)methyl)carbamoyl)cyclohexyl (2-aminoethyl)carbamate] cannot be ordered by EC50: no more than 250 nM for the first, no more than 250 nM for the second.

Compared with `CCc1nc(-c2ccnc(N(C[C@H]3CC[C@H](c4ccc(OC)c(C)n4)CC3)C(=O)[C@H]3CC[C@H](OC(=O)NCCO)CC3)c2)co1` [Compound 6.85, trans-4-((4-(2-Ethyloxazol-4-yl)pyridin-2-yl)((trans-4-(5-methoxy-6-methylpyridin-2-yl)cyclohexyl)methyl)carbamoyl)cyclohexyl (2-hydroxyethyl)carbamate], `COc1ccc([C@H]2CC[C@H](CN(c3cc(-c4coc(C5CC5)n4)ccn3)C(=O)[C@H]3CC[C@H](CNC(=O)C4CC(N(C)C)C4)CC3)CC2)nc1C` (stereo partly drawn) [Compound 30.05, trans-N-(4-(2-Cyclopropyloxazol-4-yl)pyridin-2-yl)-4-((3-(dimethylamino)cyclobutanecarboxamido)methyl)-N-((trans-4-(5-methoxy-6-methylpyridin-2-yl)cyclohexyl)methyl) cyclohexanecarboxamide] is higher in EC50: no more than 250 nM for the first, no less than 1000 nM for the second.

`COc1ncc(-c2cccc(N(C[C@H]3CC[C@H](c4ccc(OC)c(C)c4)CC3)C(=O)[C@H]3CC[C@H](C(=O)NCCO)CC3)c2)s1` [Compound 24.03] and `COc1ncc(-c2cccc(N(C[C@H]3CC[C@H](c4ccc(OC)c(C)c4)CC3)C(=O)[C@H]3CC[C@H](OCCO)CC3)c2)s1` [Compound 13.03, trans-4-(2-Hydroxyethoxy)-N-((trans-4-(4-methoxy-3-methylphenyl)cyclohexyl)methyl)-N-(3-(2-methoxythiazol-5-yl)phenyl)cyclohexanecarboxamide] cannot be ordered by EC50: no more than 250 nM for the first, no more than 250 nM for the second.

`COc1ccc([C@H]2CC[C@H](CN(c3cc(-c4cnc(C5CC5)s4)ccn3)C(=O)[C@H]3CC[C@H](C(=O)O)CC3)CC2)nc1C` [Compound 17.10, trans-4-((4-(2-Cyclopropylthiazol-5-yl)pyridin-2-yl)((trans-4-(5-methoxy-6-methylpyridin-2-yl)cyclohexyl)methyl)carbamoyl) cyclohexanecarboxylic acid] and `COc1ccc([C@H]2CC[C@H](CN(c3cccc(-c4cnn(C5CC5)c4)c3)C(=O)[C@H]3CC[C@H](C(=O)O)CC3)CC2)nc1C` [Compound 17.18, trans-4-((3-(1-Cyclopropyl-1H-pyrazol-4-yl)phenyl)((trans-4-(5-methoxy-6-methylpyridin-2-yl)cyclohexyl)methyl)carbamoyl) cyclohexanecarboxylic acid] fall in the same range of EC50: 250 to 1000 nM for the first, 250 to 1000 nM for the second.

`CCOC(=O)C[C@H]1CC[C@H](C(=O)N(C[C@H]2CC[C@H](c3ccc(OC)c(C)n3)CC2)c2cc(-c3cnn(C(C)C)c3)ccn2)CC1` [Compound 18.20, Ethyl 2-(trans-4-((4-(1-isopropyl-1H-pyrazol-4-yl)pyridin-2-yl)((trans-4-(5-methoxy-6-methylpyridin-2-yl)cyclohexyl)methyl)carbamoyl)cyclohexyl)acetate] and `COc1ccc([C@H]2CC[C@H](CN(c3cc(-c4cnn(C(C)C)c4)ccn3)C(=O)[C@H]3CC[C@H](OC(=O)N4CC(OC)C4)CC3)CC2)nc1C` [Compound 7.55, trans-4-((4-(1-Isopropyl-1H-pyrazol-4-yl)pyridin-2-yl)((trans-4-(5-methoxy-6-methylpyridin-2-yl)cyclohexyl)methyl)carbamoyl)cyclohexyl 3-methoxyazetidine-1-carboxylate] cannot be ordered by EC50: no more than 250 nM for the first, no more than 250 nM for the second.

`COc1ccc([C@H]2CC[C@H](CN(c3cc(-c4coc(C5CC5)n4)ccn3)C(=O)[C@H]3CC[C@H](CC(=O)O)CC3)CC2)cc1C#N` [Compound 21.12, 2-(trans-4-(((trans-4-(3-Cyano-4-methoxyphenyl)cyclohexyl)methyl)(4-(2-cyclopropyloxazol-4-yl)pyridin-2-yl)carbamoyl)cyclohexyl)acetic acid] and `COc1ccc([C@H]2CC[C@H](CN(c3cc(-c4coc(C5CC5)n4)ccn3)C(=O)[C@H]3CC[C@H](CC(=O)O)CC3)CC2)cc1C` [Compound 21.01, 2-(trans-4-((4-(2-Cyclopropyloxazol-4-yl)pyridin-2-yl)((trans-4-(4-methoxy-3-methylphenyl)cyclohexyl)methyl)carbamoyl)cyclohexyl)acetic acid] cannot be ordered by EC50: no more than 250 nM for the first, no more than 250 nM for the second.

`COc1ccc([C@H]2CC[C@H](CN(c3cccc(-c4cnc(C5CC5)s4)c3)C(=O)[C@H]3CC[C@H](OC(=O)NCCO)CC3)CC2)nc1C#N` [Compound 6.06, trans-4-(((trans-4-(6-Cyano-5-methoxypyridin-2-yl)cyclohexyl)methyl) (3-(2-cyclopropylthiazol-5-yl)phenyl)carbamoyl)cyclohexyl (2-hydroxyethyl)carbamate] and `COc1ccc([C@H]2CC[C@H](CN(c3cccc(-c4cnn(C(C)C)c4)c3)C(=O)[C@H]3CC[C@H](OCC(=O)O)CC3)CC2)cc1C` [Compound 12, 2-((trans-4-((3-(1-Isopropyl-1H-pyrazol-4-yl)phenyl)((trans-4-(4-methoxy-3-methylphenyl)cyclohexyl)methyl)carbamoyl)cyclohexyl)oxy)acetic acid] cannot be ordered by EC50: no more than 250 nM for the first, no more than 250 nM for the second.

`COc1ccc([C@H]2CC[C@H](CN(c3cccc(-c4cnn(C5CC5)c4)c3)C(=O)[C@H]3CC[C@H](NS(C)(=O)=O)CC3)CC2)cc1C` [Compound 26.02, trans-N-(3-(1-Cyclopropyl-1H-pyrazol-4-yl)phenyl)-N-((trans-4-(4-methoxy-3-methylphenyl)cyclohexyl)methyl)-4-(methylsulfonamido) cyclohexanecarboxamide] and `COc1ccc([C@H]2CC[C@H](CN(c3cc(-c4coc(C5CC5)n4)ccn3)C(=O)[C@H]3CC[C@H](NC(=O)COC(C)=O)CC3)CC2)cc1C` [Compound 26.17, 2-((trans-4-((4-(2-cyclopropyloxazol-4-yl)pyridine-2-yl)((trans-4-(4-methoxy-3-methylphenyl)cyclohexyl)methyl)carbamoyl)cyclohexyl)amino)-2-oxoethyl acetate] cannot be ordered by EC50: no more than 250 nM for the first, no more than 250 nM for the second.
